# Measurements reported in US6900200B2, “Tricyclic hydroxy carboxamides and derivatives thereof tocolytic oxytocin receptor antagonists” (Wyeth, priority 2001, dated 2005).
# Biological target: T1, human oxytocin receptor (Homo sapiens, UniProt P30559)
# T1 construct: host or cells: CHO cells, pcDNA3.1 vector
# T1 sequence (P30559 1-389): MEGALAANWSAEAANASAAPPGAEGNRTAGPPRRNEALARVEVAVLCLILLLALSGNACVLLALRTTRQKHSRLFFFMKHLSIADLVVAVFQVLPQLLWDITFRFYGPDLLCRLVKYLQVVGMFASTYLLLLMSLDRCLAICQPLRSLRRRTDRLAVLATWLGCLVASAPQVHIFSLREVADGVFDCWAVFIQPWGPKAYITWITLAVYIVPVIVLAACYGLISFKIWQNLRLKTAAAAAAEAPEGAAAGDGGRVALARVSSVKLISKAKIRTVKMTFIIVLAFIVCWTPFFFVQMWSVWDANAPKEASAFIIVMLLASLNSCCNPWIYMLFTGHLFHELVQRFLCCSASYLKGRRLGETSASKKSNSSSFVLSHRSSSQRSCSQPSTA
# Test: Oxytocin binding in CHO cell membranes expressing human oxytocin receptors ([3H]oxytocin radioligand binding)
# Details: @ 100 nM, read-out: OT % inhibition @ 100 nM
# Text: Oxytocin Binding in Chinese Hamster Ovary Cell Membranes Expressing Human Oxytocin Receptors
# Chinese Hamster Ovary (CHO) cells stably transfected with the human oxytocin receptor (cf. Tanizawa et al., U.S. Pat. No. 5,466,584 (1995) to Rohto Pharmaceutical Co. Ltd., Osaka, Japan) were obtained from M. Thibonnier, Case Western Reserve University School of Medicine, Cleveland, Ohio.
# A. Passaging and Amplification of Cells
# CHO cells transfected with the human oxytocin receptors obtained from M. Thibonnier (pcDNA3.1 vector) are allowed to grow to confluency (approx. >90%) in T-150 flasks under sterile conditions, in a cell culture medium of F-12 Nutrient Mixture (HAM) with L-glutamine (Gibco Cat. #11765-054) containing 15 mM HEPES (Gibco Cat. #15630-080), 1% antibiotic/antimycotic (add 5 mL 100×, Gibco Cat. #15240-062 per 500 mL F-12), 400 μg/mL of Geneticin (add 4 mL of 50 mg/mL per 500 mL F-12) and 10% Fetal Bovine Serum (Qualified, heat inactivated, Gibco Cat. #16140-063). The medium is removed by aspiration and the cells are washed with 10 mL of Hank's Balanced Salt solution (Gibco Cat. #14175-095). The salt solution is removed by aspiration and the cells trypsinized with 5 mL of trypsin-EDTA (0.05% trypsin, 0.53 mM EDTA-4Na, Gibco Cat. #25300-070) for 1 min. The trypsin is removed by aspiration and the cells dislodged by tapping. Cell Culture medium (e.g. 30 mL for 1:30 split) is immediately added and mixed well to inactivate trypsin. 1 mL of detached cells is added to new culture flasks containing fresh Cell Culture medium (e.g. into 25 mL per T-150 flask), and mixed gently. The cells are incubated at 37° C. in 5% CO2. The medium is changed at 3 to 4 days interval (or as appropriate). The cells grow to confluency (approx. >75%-95%) within 7-8 days. All steps are done under sterile conditions.
# The cells are washed twice gently with Hank's Balanced Salt solution (e.g., use 10 mL per T-1 50 flask). The excess solution is removed and the cells bathed for 15-30 min. in an enzyme-free Cell Dissociation Buffer (e.g., use 8 mL Hank's Based, Gibco Cat. #13150-016 per T-150 flask) until cells are loosened. The contents are transferred to centrifuge tubes (50 mL size) kept in ice bath. All subsequent steps are done at 4° C. The tubes are centrifuged at 300×g for 15 min (1380 rpm on SORVAL, Model RT6000D, using rotor for 50 mL tubes). The supernatant is discarded and the cells suspended in homogenizing buffer (10 mM Tris-HCl containing 0.25 M sucrose and 1 mM EDTA, pH 7.4) ensuring that the volume of the buffer is about ten times the volume of the cell pellet. The cells are pooled into a centrifuge tube (50 mL) and homogenized with a Polytron at setting 6 for 10 sec. The homogenate is transferred into a Potter-Elvjehm homogenizer and homogenized with 3 strokes. The homogenate is centrifuged at 1500×g for 10 min at 4° C. (3100 rpm using SORVAL, model RT6000D, using rotor for 50 mL tubes). The pellet is discarded. The supernatant is centrifuged at 100,000×g for 60 min. at 4° C. (Beckman L8-80M ultracentrifuge; spin at 37,500 rpm with rotor type 70 Ti for 50 mL tubes; 38,000 rpm with type 80Ti for 15 mL tubes; or 35,800 rpm with rotor type 45Ti). The supernantant is discarded and the pellet suspended in 3 to 4 mL of Tris buffer (50 mM TRIS—HCl, pH 7.4). The protein content is estimated by the Bradford or Lowry method. The volume of the membrane suspension is adjusted with the membrane buffer (50 mM Tris-HCl containing 0.1% BSA and 0.1 mM PMSF) to give 3.0 mg/mL (or as appropriate) of protein. The membranes are aliquoted and stored at −70° C.
# C. Radioligand Binding Assay
# In wells of a 96-well format microtiter plate, is added 90, 110 or 130 μL (to make up a final volume of 200 μL) of assay buffer containing 50 mM of Tris-HCl (pH 7.4), […], 1 mg % aprotinin, 1 mg % leupeptin, 2 mg % 1,10-phenanthroline, 10 mg % trypsin inhibitor, and 0.1 mM PMSF. […]
row,inhibition at 0.1 µM [%],Compound
1,101,"COc1ccccc1-c1ccc(C(=O)N2Cc3ccc(C(=O)N(C)C[C@@H](O)CO)n3Cc3ccccc32)cc1C (single isomer, unassigned) [Example 16]"
2,83,"COc1cccc(-c2ccc(C(=O)N3Cc4ccc(C(=O)N5CCN(CCO)CC5)n4Cc4ccccc43)cc2OC)c1 [Example 50, {10-[(2,3′-Dimethoxy[1,1′-biphenyl]-4-yl)carbonyl]-10,11-dihydro-5H-pyrrolo[2,1-c][1,4]benzodiazepin-3-yl}[4-(2-hydroxyethyl)-1-piperazinyl]methanone]"
3,83,"COc1cccc(-c2ccc(C(=O)N3Cc4ccc(C(=O)N5CCN(CCO)CC5)n4Cc4ccccc43)cc2C)c1 [Example 44, [4-(2-Hydroxyethyl)-1-piperazinyl]{10-[(3′-methoxy-2-methyl[1,1′-biphenyl]-4yl)carbonyl]-10,11-dihydro-5H-pyrrolo[2,1-c][1,4]benzodiazepin-3-yl}methanone]"
4,55,"COc1ccccc1-c1ccc(C(=O)N2Cc3ccc(C(=O)N4CCN(CCO)CC4)n3Cc3ccccc32)cc1 [Example 47, [4-(2-Hydroxyethyl)-1-piperazinyl]{10-[(2′-methoxy[1,1′-biphenyl]-4-yl)carbonyl]-10,11-dihydro-5H-pyrrolo[2,1-c][1,4]benzodiazepin-3-yl}methanone]"
5,79,"Cc1cc(C(=O)N2Cc3ccc(C(=O)N4CCN(CCO)CC4)n3Cc3ccccc32)ccc1-c1ccccc1C(F)(F)F [Example 48, [4-(2-Hydroxyethyl)-1-piperazinyl](10-{[2-methyl-2′-(trifluoromethyl)[1,1′-biphenyl]-4-yl)carbonyl}-10,11-dihydro-5H-pyrrolo[2,1-c][1,4]benzodiazepin-3-yl)methanone]"
6,101,"COc1ccccc1-c1ccc(C(=O)N2Cc3ccc(C(=O)N(C)C[C@H](O)CO)n3Cc3ccccc32)cc1C (single isomer, unassigned) [Example 15]"
7,20,"O=C(c1ccc2n1Cc1ccccc1N(C(=O)c1ccc(-c3cccc4ccccc34)cc1Cl)C2)N1CCN(CCO)CC1 [Example 25, 2-{4-[10-{[2-Chloro-4-(naphthalen-1-yl)phenyl]carbonyl}-(10,11-dihydro-5H-pyrrolo[2,1-c][1,4]benzodiazepin-3-yl)carbonyl]piperazine-1-yl}-1-hydroxyethane]"
8,87,"Cc1ccccc1-c1ccc(C(=O)N2Cc3ccc(C(=O)N4CCN(CCO)CC4)n3Cc3ccccc32)cc1 [Example 45, [4-(2-Hydroxyethyl)-1-piperazinyl]{10-[(2′-methyl[1,1′-biphenyl]-4-yl)carbonyl]-10,11-dihydro-5H-pyrrolo[2,1-c][1,4]benzodiazepin-3-yl}methanone]"

# Same assay, conditions: value printed in parentheses, read-out: OT (IC50)
row,IC50 [nM],Compound
1,26.7,"COC[C@@H](O)CN1CCN(C(=O)c2ccc3n2Cc2ccccc2N(C(=O)c2ccc(-c4ccccc4C(F)(F)F)c(C)c2)C3)CC1 [Example 9, [3-({4-[(2S)-2-Hydroxy-3-methoxypropyl]-1-piperazinyl}carbonyl)-5H-pyrrolo[2,1-c][1,4]benzodiazepin-10(11H)-yl][2-methyl-2′-trifluoromethyl-[1,1′-biphenyl]-4-yl]methanone]"
2,5.31,"COCC(CN(C)C(=O)c1ccc2n1Cc1ccccc1N(C(=O)c1ccc(-c3ccccc3C(F)(F)F)c(C)c1)C2)OC (centres unmarked) [Example 10, N-(2,3-Dimethoxypropyl)-N-methyl-10-{[2-methyl-2′-trifluoromethyl-[1,1′-biphenyl]-4-yl]carbonyl}-10,11-dihydro-5H-pyrrolo[2,1-c][1,4]benzodiazepine-3-carboxamide]"
3,35.8,"Cc1cc(C(=O)N2Cc3ccc(C(=O)N4CCN(C[C@H](O)CO)CC4)n3Cc3ccccc32)ccc1-c1ccccc1C(F)(F)F [Example 5, (2S)-3-{4-[(10-{[2-Methyl-2′-trifluoromethyl-[1,1′-biphenyl]-4-yl]carbonyl}-10,11-dihydro-5H-pyrrolo[2,1-c][1,4]benzodiazepin-3-yl)carbonyl]piperazin-1-yl}propane-1,2-diol]"
4,3.43,"Cc1cc(C(=O)N2Cc3ccc(C(=O)N(C)C[C@H](O)[C@@H](O)[C@H](O)[C@H](O)CO)n3Cc3ccccc32)ccc1-c1ccccc1C(F)(F)F [Example 4, 10-[(2-Methyl-2′-trifluoromethyl-[1,1′-biphenyl]-4-yl)carbonyl]-10,11-dihydro-5H-pyrrolo[2,1-c][1,4]benzodiazepine-3-carboxylic acid methyl-((2S,3R,4R,5R)-2,3,4,5,6-pentahydroxy-hexyl)-amide]"
5,4.09,"COc1cc(C(=O)N2Cc3ccc(C(=O)N(C)C[C@@H](O)[C@H](O)[C@H](O)[C@@H](O)CO)n3Cc3ccccc32)ccc1-c1ccccc1C(F)(F)F (stereo in doubt) [Example 23, 10-{[2-Methoxy-2′-trifluoromethyl-[1,1′-biphenyl]-4-yl]carbonyl}-N-methyl-N-[(2R,3S,4R,5S)-2,3,4,5,6-pentahydroxyhexyl]-10,11-dihydro-5H-pyrrolo[2,1-c][1,4]benzodiazepine-3-carboxamide]"
6,25.1,"Cc1cc(C(=O)N2Cc3ccc(C(=O)N4CCN(C[C@@H](O)CO)CC4)n3Cc3ccccc32)ccc1-c1ccccc1C(F)(F)F [Example 6, (2R)-3-{4-[(10-{[2-Methyl-2′-trifluoromethyl-[1,1′-biphenyl]-4-yl]carbonyl}-10,11-dihydro-5H-pyrrolo[2,1-c][1,4]benzodiazepin-3-yl)carbonyl]piperazin-1-yl}propane-1,2-diol]"
7,9.16,"CC(=O)OCC(CN(C)C(=O)c1ccc2n1Cc1ccccc1N(C(=O)c1ccc(-c3ccccc3C(F)(F)F)c(C)c1)C2)OC(C)=O (centres unmarked) [Example 13, 2-(Acetyloxy)-1-({methyl[(10-{[2-methyl-2′-trifluoromethyl-[1,1′-biphenyl]-4-yl]carbonyl}-10,11-dihydro-5H-pyrrolo[2,1-c][1,4]benzodiazepin-3-yl)carbonyl]amino}methyl)ethyl acetate]"
8,7.55,"COC[C@H](O)CN1CCN(C(=O)c2ccc3n2Cc2ccccc2N(C(=O)c2ccc(-c4ccccc4C(F)(F)F)c(C)c2)C3)CC1 [Example 8, (2R)-1-Methoxy-3-{4-[(10-{[2-methyl-2′-trifluoromethyl-[1,1′-biphenyl]-4-yl]carbonyl}-10,11-dihydro-5H-pyrrolo[2,1-c][1,4]benzodiazepin-3-yl)carbonyl]piperazin-1-yl}propan-2-ol]"

row,Compound,IC50 [nM]
1,"{(2S)-1-[(10-{[2-Methoxy-2(trifluoromethyl)[1,1′-biphenyl]-4-yl]carbonyl}-10,11-dihydro-5H-pyrrolo[2,1-c][1,4]benzodiazepin-3-yl)carbonyl]pyrrolidin-2-yl}-methanol [Example 36]",7.95
